Test results from US20260315464A1, “COMPOSITIONS, METHODS, AND SYSTEMS FOR MODULATING SPLICING OF MSH3” (REVIR THERAPEUTICS, INC., priority 2023, published 2026).

System: MSH3
Experiment: QPCR assay for levels of MSH3 upon compound treatment in HEK293T or AD293 cells (fold-change of MSH3 transcript, EC50 of MSH3 downregulation; total MSH3 exons 13/14, exons 20/21; Table 8)
Assay type: cell-based
Details: Homo sapiens, fold-change of the MSH3 transcript, normalized to GAPDH; for mrna remaining at 1 µM: 1 μM compound; for mrna remaining at 10 µM: 10 μM compound
Protocol: HEK293T or AD293 cells were treated with Compound 274 at 1 μM and […]. RNA, cDNA and qPCR was prepared using TaqMan Cells-to-CT Express kit (ThermoFisher Scientific). Taqman assays (ThermoFisher Scientific) were used for quantification of total MSH3 exons 13/14 (cat #4351372, ID #: Hs00988993_ml), total MSH3 exons 20/21 (cat #4351372, ID #: Hs00989000_ml), exon 13/PE14A (Fwd: 5′-[…]; Rev: 5′-[…]; Probe: 5′-[…]) and exon 20/PE21A (Fwd: 5′-[…]; Rev: 5′-[…]; Probe: 5′-[…]) mRNA expression. Taqman GAPDH (cat #4448489, ID #: Hs02758991_g1) was used as a reference for data normalization.

Row | SMILES | mrna remaining at 1 µM | mrna remaining at 10 µM
1 | CN(c1ccc(N2Cc3ncc(-c4cn(C)nc4Cl)cc3C2=O)nn1)[C@H]1C[C@]2(C)CC[C@](C)(C1)N2 [Compound 609, 3-(3-chloro-1-methyl-1H-pyrazol-4-yl)-6-(6-(((1R,3s,5S)-1,5-dimethyl-8-azabicyclo[3.2.1]octan-3-yl)(methyl)amino)pyridazin-3-yl)-6,7-dihydro-5H-pyrrolo[3,4-b]pyridin-5-one] | 39% | 7%
2 | Cc1nn(C)cc1-c1cc2c(c(Cl)n1)CN(c1ccc(N(C)[C@H]3C[C@]4(C)CC[C@](C)(C3)N4)nn1)C2=O [Compound 90, 4-chloro-6-(1,3-dimethyl-1H-pyrazol-4-yl)-2-(6-(((1R,3s,5S)-1,5-dimethyl-8-azabicyclo[3.2.1]octan-3-yl)(methyl)amino)pyridazin-3-yl)-2,3-dihydro-1H-pyrrolo[3,4-c]pyridin-1-one] | 38% | 18%
3 | Cc1nn(C)cc1-c1cc(F)c2c(c1)C(=O)N(c1ccc(O[C@H]3C[C@]4(C)CC[C@@](C)(N4)[C@H]3F)nn1)C2 [Compound 281, 6-(1,3-dimethyl-1H-pyrazol-4-yl)-4-fluoro-2-(6-(((1R,2R,3S,5S)-2-fluoro-1,5-dimethyl-8-azabicyclo[3.2.1]octan-3-yl)oxy)pyridazin-3-yl)isoindolin-1-one] | 85% | 41%
4 | Cc1nn(C)cc1-c1cnc2c(c1)C(=O)N(c1ccc(O[C@@H]3C[C@@]4(C)CC[C@](C)(N4)[C@@H]3F)nn1)C2 [Compound 214, 3-(1,3-dimethyl-1H-pyrazol-4-yl)-6-(6-(((1S,2S,3R,5R)-2-fluoro-1,5-dimethyl-8-azabicyclo[3.2.1]octan-3-yl)oxy)pyridazin-3-yl)-6,7-dihydro-5H-pyrrolo[3,4-b]pyridin-5-one] | 95% | 24%
5 | Cc1nn(C)nc1-c1cc(F)c2c(c1)C(=O)N(c1ccc(N3CCNC(C)CC3)nn1)C2 (stereo not drawn) [Compound 639, 6-(2,5-dimethyl-2H-1,2,3-triazol-4-yl)-4-fluoro-2-(6-(5-methyl-1,4-diazepan-1-yl)pyridazin-3-yl)isoindolin-1-one] | 118% | 55%
6 | Cc1nn(C)nc1-c1cc(F)c2c(c1)C(=O)N(c1ccc(N3CCC(C)(C)NC(C)(C)C3)nn1)C2 [Compound 657, 6-(2,5-dimethyl-2H-1,2,3-triazol-4-yl)-4-fluoro-2-(6-(3,3,5,5-tetramethyl-1,4-diazepan-1-yl)pyridazin-3-yl)isoindolin-1-one] | 75% | 26%
7 | C[C@@H]1CN(c2ccc(N3Cc4ncc(-c5nn(C)nc5Cl)cc4C3=O)nn2)[C@@H](C)CN1 [Compound 614, 3-(5-chloro-2-methyl-2H-1,2,3-triazol-4-yl)-6-(6-((2S,5R)-2,5-dimethylpiperazin-1-yl)pyridazin-3-yl)-6,7-dihydro-5H-pyrrolo[3,4-b]pyridin-5-one] | 107% | 79%
8 | Cc1nc(C)c(-c2cnc3c(c2)C(=O)N(c2ccc(OC4CC(C)(C)NC(C)(C)C4)nn2)C3)s1 [Compound 150, 3-(2,4-dimethylthiazol-5-yl)-6-(6-((2,2,6,6-tetramethylpiperidin-4-yl)oxy)pyridazin-3-yl)-6,7-dihydro-5H-pyrrolo[3,4-b]pyridin-5-one] | 116% | 77%
9 | CN(c1ncc(N2Cc3ncc(-c4cn(C)nc4F)cc3C2=O)nn1)[C@H]1C[C@]2(C)CC[C@](C)(C1)N2 [Compound 217, 6-(3-(((1R,3s,5S)-1,5-dimethyl-8-azabicyclo[3.2.1]octan-3-yl)(methyl)amino)-1,2,4-triazin-6-yl)-3-(3-fluoro-1-methyl-1H-pyrazol-4-yl)-6,7-dihydro-5H-pyrrolo[3,4-b]pyridin-5-one] | 92% | 78%
